Test results: patent publication US20230382909A1, “BICYCLIC COMPOUNDS” (Aligos Therapeutics, Inc., priority 2022, published 2023)

What was measured:
HBV = experiment: HBV-DNA antiviral assay using HepG2.117 cells; format: cell-based, HBV genotype D; conditions: Hepatitis B virus, HepG2.117, 72 h
Procedure: (§1) The following assay procedure describes the HBV antiviral assay, using HepG2.117 cells, which carry a stably integrated genotype D HBV genome under the control of a Tet-off promoter, and intracellular HBV DNA quantification as endpoint. Cell viability is assessed in parallel by measuring the intracellular ATP content using CellTiter-Glo 2.0 (Promega).
On day 0, HepG2.117 cells (which are maintained in routine cell culture with doxycycline present in the medium at a final concentration of 1 μg/mL) are seeded in 96-well plates (white with clear bottom) at a density of 2.0×10^4 cells/well (0.1 mL/well) in medium without doxycycline to induce pgRNA transcription and subsequent formation of HBV particles. The cells are incubated at 37° C. and 5% CO2.
(§2) On day 1, medium is removed from each well, the test articles are diluted in culture medium without doxcycyline and 100 μL was added to cell culture wells (9 concentrations, 4-fold dilution). For each plate, 6 untreated (merely DMSO) wells are included. The final concentration of DMSO in the culture medium is 2%. Each plate is prepared in duplicate (one for HBV DNA extraction, one for CellTiter-Glo 2.0 measurement). The cells are incubated at 37° C. and 5% CO2 for 3 days.
(§3) On day 4, cell viability is assessed using CellTiter-Glo 2.0 and cell lysates are prepared for HBV DNA extraction and subsequent quantification by qPCR.
HBV DNA Quantification by qPCR
Medium is removed from each well and 100 μL of 0.33% NP-40 in H2O was added to each well. Plates are sealed, incubated at 4° C. for 5 mins, vortexed extensively and centrifuged briefly. Next, 35 μL of lysate is added to 65 μL QuickExtract DNA Extraction Solution (Epicentre) in a PCR plate for each well. PCR plate is incubated at 65° C. for 6 mins, 98° C. for 2 mins and finally cooled to 4° C. HBV DNA is then quantified by qPCR with HBV-specific primers and probes as specified in Table 3 using the Bio-Rad SSOAdvanced Universal Probes Supermix on a CFX96 machine (Bio-Rad). The PCR cycle program consisted of 95° C. for 3 mins, followed by 40 cycles at 95° C. for 10 sec and 60° C. for 30 sec.
A DNA standard is prepared by dilution of an IDT gBlock corresponding to the amplicon with concentrations ranging from 10^2 to 10^8 copies/input (i.e., per 4 μL) and used to generate a standard curve by plotting Cq values vs. HBV DNA standard concentration. The quantity of HBV DNA in each sample is determined by interpolating from the standard curve.
(§4) Cell viability is calculated as follows: % Cell viability=(luminescence value of test sample)/(average luminescence value of 2% DMSO control)×100%. HBV DNA inhibition was calculated as follows: 100−(HBV DNA copy number of test sample)/(average HBV DNA copy number of 2% DMSO control)×100%. No normalization to entecavir is required due to the excellent dynamic window of this assay. The CC50, EC50 and EC9o values were determined by dose-response curves fitted using non-linear regression.

[1] = Cell viability by CellTiter-Glo 2.0 (intracellular ATP content) in HepG2.117 cells; format: cell-based; conditions: human, CellTiter-Glo 2.0, 3 days incubation
Procedure: as §1, §2, §3
Using the other plates, the cell viability is quantified by CellTiter-Glo 2.0 according to the manufacturer's manual. In brief, 100 μL of reagent solution is added to the culture plates and shaken for 2′. The plates are incubated at rt for 10 min and luminescence signal is subsequently measured on a VarioSkan Lux (ThermoFisher) plate reader.
as §4

Row | Structure (SMILES) | EC50 (HBV) [nM] | CC50 at 3 days [1] [nM]
1 | Cc1cc(C)n(-c2nc3c(c(=O)n2-c2cc(Cl)c4c(c2)ncn4C)C[C@@H](C)N(C(=O)c2ccc(Br)c(C(F)(F)F)c2)C3)n1 [Compound 17, (6R)-7-[4-bromo-3-(trifluoromethyl)benzoyl]-3-(7-chloro-1-methyl-benzimidazol-5-yl)-2-(3,5-dimethylpyrazol-1-yl)-6-methyl-6,8-dihydro-5H-pyrido[3,4-d]pyrimidin-4-one] | < 50 | > 500
2 | CNC(=O)c1ccc(-n2c(-n3nc(C)cc3C)nc3c(c2=O)C[C@@H](C)N(C(=O)c2ccc(Br)c(C(F)(F)F)c2)C3)cn1 [Compound 18, 5-[(6R)-7-[4-bromo-3-(trifluoromethyl)benzoyl]-2-(3,5-dimethylpyrazol-1-yl)-6-methyl-4-oxo-6,8-dihydro-5H-pyrido[3,4-d]pyrimidin-3-yl]-N-methyl-pyridine-2-carboxamide] | < 50 | > 500
3 | Cc1cc(C)n(-c2nc3c(c(=O)n2-c2cnc4c(c2)ncn4C)C[C@@H](C)N(C(=O)c2ccc(Br)c(C(F)(F)F)c2)C3)n1 [Compound 19, (6R)-7-[4-bromo-3-(trifluoromethyl)benzoyl]-2-(3,5-dimethylpyrazol-1-yl)-6-methyl-3-(3-methylimidazo[4,5-b]pyridin-6-yl)-6,8-dihydro-5H-pyrido[3,4-d]pyrimidin-4-one] | < 50 | > 500
4 | Cc1cc(C)n(-c2nc3c(c(=O)n2-c2cnc4c(ncn4C)n2)C[C@@H](C)N(C(=O)c2ccc(Br)c(C(F)(F)F)c2)C3)n1 [Compound 20, (6R)-7-[4-bromo-3-(trifluoromethyl)benzoyl]-2-(3,5-dimethylpyrazol-1-yl)-6-methyl-3-(1-methylimidazo[4,5-b]pyrazin-5-yl)-6,8-dihydro-5H-pyrido[3,4-d]pyrimidin-4-one] | < 50 | > 500
5 | Cc1cc(C)n(-c2nc3c(c(=O)n2-c2cc(F)c4ncn(C)c4c2)C[C@@H](C)N(C(=O)c2ccc(Br)c(C(F)(F)F)c2)C3)n1 [Compound 21, (6R)-7-[4-bromo-3-(trifluoromethyl)benzoyl]-2-(3,5-dimethylpyrazol-1-yl)-3-(7-fluoro-3-methyl-benzimidazol-5-yl)-6-methyl-6,8-dihydro-5H-pyrido[3,4-d]pyrimidin-4-one] | < 50 | > 500
6 | Cc1cc(C)n(-c2nc3c(c(=O)n2-c2cc(F)c4c(c2)ncn4C)C[C@@H](C)N(C(=O)c2ccc(Br)c(C(F)(F)F)c2)C3)n1 [Compound 22, (6R)-7-[4-bromo-3-(trifluoromethyl)benzoyl]-2-(3,5-dimethylpyrazol-1-yl)-3-(7-fluoro-1-methyl-benzimidazol-5-yl)-6-methyl-6,8-dihydro-5H-pyrido[3,4-d]pyrimidin-4-one] | < 50 | > 500
7 | Cc1cc(C)n(-c2nc3c(c(=O)n2-c2ccc4c(c2)ncn4CC(F)F)C[C@@H](C)N(C(=O)c2ccc(Br)c(C(F)(F)F)c2)C3)n1 [Compound 23, (6R)-7-[4-bromo-3-(trifluoromethyl)benzoyl]-3-[1-(2,2-difluoroethyl)benzimidazol-5-yl]-2-(3,5-dimethylpyrazol-1-yl)-6-methyl-6,8-dihydro-5H-pyrido[3,4-d]pyrimidin-4-one] | < 50 | > 500
8 | CNC(=O)c1ccc(-n2c(-n3nc(C)cc3C)nc3c(c2=O)C[C@@H](C)N(C(=O)c2ccc(Br)c(C(F)(F)F)c2)C3)cc1N [Compound 24, 2-amino-4-[(6R)-7-[4-bromo-3-(trifluoromethyl)benzoyl]-2-(3,5-dimethylpyrazol-1-yl)-6-methyl-4-oxo-6,8-dihydro-5H-pyrido[3,4-d]pyrimidin-3-yl]-N-methyl-benzamide] | < 50 | > 500
9 | Cc1cc(C)n(-c2nc3c(c(=O)n2-c2ccc(NC(C)C)nc2)C[C@@H](C)N(C(=O)c2ccc(Br)c(C(F)(F)F)c2)C3)n1 [Compound 25, (6R)-7-[4-bromo-3-(trifluoromethyl)benzoyl]-2-(3,5-dimethylpyrazol-1-yl)-3-[6-(isopropylamino)-3-pyridyl]-6-methyl-6,8-dihydro-5H-pyrido[3,4-d]pyrimidin-4-one] | < 50 | > 500
10 | Cc1cc(C)n(-c2nc3c(c(=O)n2-c2cc(C)c4c(c2)ncn4C)C[C@@H](C)N(C(=O)c2ccc(Br)c(C(F)(F)F)c2)C3)n1 [Compound 26, (6R)-7-[4-bromo-3-(trifluoromethyl)benzoyl]-3-(1,7-dimethylbenzimidazol-5-yl)-2-(3,5-dimethylpyrazol-1-yl)-6-methyl-6,8-dihydro-5H-pyrido[3,4-d]pyrimidin-4-one] | < 50 | > 500
11 | Cc1cc(C)n(-c2nc3c(c(=O)n2-c2ccc(N4CCOCC4)nc2)C[C@@H](C)N(C(=O)c2ccc(Br)c(C(F)(F)F)c2)C3)n1 [Compound 27, (6R)-7-[4-bromo-3-(trifluoromethyl)benzoyl]-2-(3,5-dimethylpyrazol-1-yl)-6-methyl-3-(6-morpholino-3-pyridyl)-6,8-dihydro-5H-pyrido[3,4-d]pyrimidin-4-one] | < 50 | > 500
12 | Cc1cc(C)n(-c2nc3c(c(=O)n2-c2ccc(OC[C@H](C)O)nc2)C[C@@H](C)N(C(=O)c2ccc(Br)c(C(F)(F)F)c2)C3)n1 [Compound 28, (6R)-7-[4-bromo-3-(trifluoromethyl)benzoyl]-2-(3,5-dimethylpyrazol-1-yl)-3-[6-[(2S)-2-hydroxypropoxy]-3-pyridyl]-6-methyl-6,8-dihydro-5H-pyrido[3,4-d]pyrimidin-4-one] | < 50 | > 500
13 | Cc1cc(C)n(-c2nc3c(c(=O)n2-c2ccc(NC[C@H](C)O)nc2)C[C@@H](C)N(C(=O)c2ccc(Br)c(C(F)(F)F)c2)C3)n1 [Compound 29, (6R)-7-[4-bromo-3-(trifluoromethyl)benzoyl]-2-(3,5-dimethylpyrazol-1-yl)-3-[6-[[(2S)-2-hydroxypropyl]amino]-3-pyridyl]-6-methyl-6,8-dihydro-5H-pyrido[3,4-d]pyrimidin-4-one] | < 50 | > 500
14 | Cc1cc(C)n(-c2nc3c(c(=O)n2-c2ccc(NC[C@@H](O)CO)nc2)C[C@@H](C)N(C(=O)c2ccc(Br)c(C(F)(F)F)c2)C3)n1 [Compound 30, (6R)-7-[4-bromo-3-(trifluoromethyl)benzoyl]-3-[6-[[(2R)-2,3-dihydroxypropyl]amino]-3-pyridyl]-2-(3,5-dimethylpyrazol-1-yl)-6-methyl-6,8-dihydro-5H-pyrido[3,4-d]pyrimidin-4-one] | 50 to 500 | > 500
15 | Cc1cc(C)n(-c2nc3c(c(=O)n2-c2ccc(NC[C@H](O)CO)nc2)C[C@@H](C)N(C(=O)c2ccc(Br)c(C(F)(F)F)c2)C3)n1 [Compound 31, (6R)-7-[4-bromo-3-(trifluoromethyl)benzoyl]-3-[6-[[(2S)-2,3-dihydroxypropyl]amino]-3-pyridyl]-2-(3,5-dimethylpyrazol-1-yl)-6-methyl-6,8-dihydro-5H-pyrido[3,4-d]pyrimidin-4-one] | 50 to 500 | > 500
16 | Cc1cc(C)n(-c2nc3c(c(=O)n2-c2ccc(N4CC(O)C4)nc2)C[C@@H](C)N(C(=O)c2ccc(Br)c(C(F)(F)F)c2)C3)n1 [Compound 32, (6R)-7-[4-bromo-3-(trifluoromethyl)benzoyl]-2-(3,5-dimethylpyrazol-1-yl)-3-[6-(3-hydroxyazetidin-1-yl)-3-pyridyl]-6-methyl-6,8-dihydro-5H-pyrido[3,4-d]pyrimidin-4-one] | < 50 | > 500
